Here are results for five compounds from patent US20040048279A1, “Method for detecting methylation states for a toxicological diagnostic” (priority 2000, published 2004).

The test system of one data set is Cyp1a1. The following applies: mice exposed to the substance; Arch Biochem Biophys 2000;376(1):66-73; cited from earlier work.
For a further data set, the system named is HT29-P208 cells. In words: Methylation state of CpG positions by bisulfite treatment, multiplex PCR and oligonucleotide array hybridization in treated HT29-P208 cells. It counts as cell-based. Particulars: for methylation state of selected CpG positions of the genes EGFR, ANT1 and CDC25A (CG signal / (CG+TG signal)): trichostatin 50 nM or milrinone 50 μM, FIG. 4; for methylation state of selected CpG positions of the genes EGFR, ANT1 and CDC25A (CG signal / (CG+TG signal)) / methylation state of selected CpGs of the genes TGF-a, EGFR, ANT1 and E-cadherin (CG signal / (CG+TG signal)): treated versus untreated; for methylation state of selected CpGs of the genes TGF-a, EGFR, ANT1 and E-cadherin (CG signal / (CG+TG signal)): FIG. 3; for differences in methylation of 64 gene fragments versus controls: treatment time 6 h (data not shown); for degree of methylation of various CpG positions of 64 gene fragments, in contrast to controls (HT29-P208 in medium): treatment time 24 h, 10 ng/ml TGF-b1 or 10 ng/ml IL-1b in medium, FIGS. 1 and 2, p<0.05. The procedure: HT-29 P208 cells (5×10^4 cells/ml) were seeded in culture dishes (33×5 cm) and grown for 5 days in DMEM/Ham's F-12 medium, which was supplemented with 10% fetal calf serum at 37° C. and 5% CO2, up to 95% confluence (Campbell-Thompson, M. and Bhardwaj, B., Cancer Research 2001, 61, 632-640). The cells were then incubated for 24 h in medium not containing calf serum. After repeated change of medium, the cells were incubated in 3 parallel cultures for 6 h and 24 h, either with medium, medium supplemented with 10 ng/ml TGF-b1, medium supplemented with 10 ng/ml IL-1b, medium supplemented with trichostatin (50 nM) or medium supplemented with milrinone (50 μM). The cells freed of medium were treated with trypsin, centrifuged, and resuspended in 200 μl of PBS buffer (Fritsch and Maniatis eds., Molecular Cloning: A Laboratory Manual, 1989), and stored at −20° C. The chromosomal DNA was purified with a QIAamp Kit according to the manufacturer's instructions (Qiagen, Hilden).
The DNA samples (20 ng) were digested with the restriction enzyme Mss1. The digested DNA was chemically converted with hydrogen sulfite (bisulfite, disulfite) and a radical trap at elevated temperature (DE 10050942). In this way, after alkaline hydrolysis, all unmethylated cytosines are converted to uracil, which correspond in their base-pairing behavior to thymidine. In contrast, 5-methylcytosine is not modified under these conditions.
The chemically pretreated DNA was then amplified with the use of a heat-stable DNA polymerase in a polymerase chain reaction. The multiplex PCR reactions were conducted with a thermocycler (Eppendorf GmbH) with the use of 10 ng of bisulfite-treated DNA, each time with […] of primer oligonucleotides (mixture of up to 32 individual primer oligonucleotides; see Table 3), 800 μM dNTPs and 4.5 mM magnesium chloride. The cycler program was as follows: step 1, 14 min at 96° C.; step 2, 60 sec 96° C.; step 3, 45 sec 55° C.; step 4, 75 sec 72° C.; step 5, 10 min at 72° C.; steps 2 to 4 were repeated 39 times.
The DNA fragments of 64 different genes listed in Table 3 were amplified with 6 sets of multiplex PCR (mPCR) and with bisulfite-treated DNA as the template, as described above. The mPCR reactions (I, J, K, L, M, N) of the genomic, bisulfite-treated DNA were conducted with the combination of primer oligonucleotides as listed in Table 3. It is also possible, however, to use other primer oligonucleotides in the same way for the amplification of the genomic, bisulfite-treated DNA. The primer pairs listed in Table 1, however, are particularly preferred.
The amplificates produced in Example 2 were hybridized with 512 oligonucleotides, which were bound to a solid phase (Model, F. and Adorjian, P., Bioinformatics 2001, 17 Suppl. 1, 157-164). The solid phase loaded with oligonucleotides is named an oligonucleotide array below. The detectability of the hybridization product is based on primer oligonucleotides fluorescently labeled with Cy5, which were used for the amplification. A hybridization reaction of the amplified DNA with the oligonucleotide, for example, GTTTTTTTCGTTTTAGAG (Sequence ID 6), occurs only when a methylated cytosine is present at the said site of the bisulfite-treated DNA. Thus, the methylation state of the specific cytosine can be determined by means of the hybridization product. In order to verify the methylation state of said position, an oligonucleotide is found on the oligonucleotide array, which permits it to detect the unmethylated cytosine. This oligonucleotide is identical to the oligonucleotide which was previously used for the analysis of the methylated status of the sample, with the exception that the oligonucleotide bears a thymine base instead of a cytosine base at the position to be analyzed, e.g., GTTTTTTTTGTTTTAGAG (Sequence ID 7). Thus, a hybridization reaction occurs only if an unmethylated cytosine is present at the position to be analyzed. […]

On to `O=c1cc(-c2ccccc2)oc2ccc3ccccc3c12` [beta-naphthoflavone], for which the “Cyp1a1 gene expression after exposure” value in the data set on Cyp1a1 is on record as “induced”. Turning to `CC(/C=C/C(=O)NO)=C\[C@@H](C)C(=O)c1ccc(N(C)C)cc1` [trichostatin, reference compound], the “methylation state of selected CpG positions of the genes EGFR, ANT1 and CDC25A (CG signal / (CG+TG signal))” value in the data set on HT29-P208 cells is given as “increase”. Take `Cc1[nH]c(=O)c(C#N)cc1-c1ccncc1` [milrinone, reference compound]: the “methylation state of selected CpG positions of the genes EGFR, ANT1 and CDC25A (CG signal / (CG+TG signal))” value with HT29-P208 cells is reported as “reduction in the methylation state”.

In the case of “TGF-b1: TGF-b1 (transforming growth factor), exogenous cytokine added to medium at 10 ng/ml”, in the data set on HT29-P208 cells, the “methylation state of selected CpGs of the genes TGF-a, EGFR, ANT1 and E-cadherin (CG signal / (CG+TG signal))” value is “significant reduction of the methylation state”; the “differences in methylation of 64 gene fragments versus controls” value is given as “no significant differences in methylation”; the “degree of methylation of various CpG positions of 64 gene fragments, in contrast to controls (HT29-P208 in medium)” value is recorded as “smaller degree of methylation”. Consider “IL-1b: IL-1b (interleukin), exogenous cytokine added to medium at 10 ng/ml”, for which, in the data set with HT29-P208 cells, the “methylation state of selected CpGs of the genes TGF-a, EGFR, ANT1 and E-cadherin (CG signal / (CG+TG signal))” value is reported as “no change or to an increase in the methylation state”; the “differences in methylation of 64 gene fragments versus controls” value is “no significant differences in methylation”; the “degree of methylation of various CpG positions of 64 gene fragments, in contrast to controls (HT29-P208 in medium)” value was “greater degree of methylation”.
